# Tested on: CD3+ cells
# Assay: Gene expression in CD3+ cells from CD14-ve PBMCs cultured with naltrexone (Illumina biochips)
# Type: cell-based, human
# Conditions: 4 h
# Description: The RNA was then extracted from the cells using Trizol then isopropanol. The expression of the genes was measured using Illumina platform with biochips surveying the total human genome. […] The ratio of treated:untreated was calculated and the 25% change from untreated considered relevant.
compound,measurement,setting,value
"O=C1CC[C@@]2(O)[C@H]3Cc4ccc(O)c5c4[C@@]2(CCN3CC2CC2)[C@H]1O5 [NTX, morphinan-6-one,17-(cyclopropylmethyl)-4,5-epoxy-3,14-dihydroxy-(5a)]",number of genes upregulated by LDN but unchanged by NTX,"10 nM LDN vs 10 uM NTX, 19,571 genes called present, 25% change relevant",223 genes
same,"ACTB expression, LDN",10 nM naltrexone (LDN),156
same,"ALDH4A1 expression, LDN",10 nM naltrexone (LDN),135
same,"ASAP1 expression, LDN",10 nM naltrexone (LDN),97
same,"BCLAF1 expression, LDN",10 nM naltrexone (LDN),130
same,"BIRC3 expression, LDN",10 nM naltrexone (LDN),173
same,"CASZ1 expression, LDN",10 nM naltrexone (LDN),167
same,"CDC42SE2 expression, LDN",10 nM naltrexone (LDN),119
same,"CDKN2AIP expression, LDN",10 nM naltrexone (LDN),93
same,"DRAP1 expression, LDN",10 nM naltrexone (LDN),309
same,"DYNLL2 expression, LDN",10 nM naltrexone (LDN),93
same,"EIF2S3 expression, LDN",10 nM naltrexone (LDN),135
same,"EIF3E expression, LDN",10 nM naltrexone (LDN),427
same,"EIF4B expression, LDN",10 nM naltrexone (LDN),594
same,"EZR expression, LDN",10 nM naltrexone (LDN),1218
same,"FRG1 expression, LDN",10 nM naltrexone (LDN),99
same,"H3F3A expression, LDN",10 nM naltrexone (LDN),616
same,"HIST1H4C expression, LDN",10 nM naltrexone (LDN),1093
same,"HPCAL1 expression, LDN",10 nM naltrexone (LDN),491
same,"ITGB2 expression, LDN",10 nM naltrexone (LDN),719
same,"KCTD6 expression, LDN",10 nM naltrexone (LDN),105
same,"LSM5 expression, LDN",10 nM naltrexone (LDN),166
same,"MAP4K1 expression, LDN",10 nM naltrexone (LDN),475
same,"MORF4L1 expression, LDN",10 nM naltrexone (LDN),135
same,"MTF1 expression, LDN",10 nM naltrexone (LDN),84
same,"MYLK expression, LDN",10 nM naltrexone (LDN),166
same,"NUCB1 expression, LDN",10 nM naltrexone (LDN),436
same,"OR10A6 expression, LDN",10 nM naltrexone (LDN),152
same,"PAH expression, LDN",10 nM naltrexone (LDN),135
same,"PDCD4 expression, LDN",10 nM naltrexone (LDN),83
same,"PECI expression, LDN",10 nM naltrexone (LDN),85
same,"PRPF8 expression, LDN",10 nM naltrexone (LDN),464
same,"PSME2 expression, LDN",10 nM naltrexone (LDN),144
same,"PVRL2 expression, LDN",10 nM naltrexone (LDN),151
same,"RASAL3 expression, LDN",10 nM naltrexone (LDN),356
same,"S100A6 expression, LDN",10 nM naltrexone (LDN),240
same,"SH3BGRL3 expression, LDN",10 nM naltrexone (LDN),327
same,"SPOCK2 expression, LDN",10 nM naltrexone (LDN),1322
same,"WDR75 expression, LDN",10 nM naltrexone (LDN),81
same,"YWHAZ expression, LDN",10 nM naltrexone (LDN),809
same,ACTB L/U-score,10 nM naltrexone,U (increase)
same,ALDH4A1 L/U-score,10 nM naltrexone,U (increase)
same,ASAP1 L/U-score,10 nM naltrexone,D (reduction)
same,BCLAF1 L/U-score,10 nM naltrexone,D (reduction)
same,BIRC3 L/U-score,10 nM naltrexone,D (reduction)
same,CASZ1 L/U-score,10 nM naltrexone,U (increase)
same,CDC42SE2 L/U-score,10 nM naltrexone,D (reduction)
same,CDKN2AIP L/U-score,10 nM naltrexone,D (reduction)
same,DRAP1 L/U-score,10 nM naltrexone,U (increase)
same,DYNLL2 L/U-score,10 nM naltrexone,D (reduction)
same,EIF2S3 L/U-score,10 nM naltrexone,D (reduction)
same,EIF3E L/U-score,10 nM naltrexone,D (reduction)
same,EIF3M L/U-score,10 nM naltrexone,D (reduction)
same,EIF4B L/U-score,10 nM naltrexone,U (increase)
same,EZR L/U-score,10 nM naltrexone,U (increase)
same,FRG1 L/U-score,10 nM naltrexone,D (reduction)
same,H3F3A L/U-score,10 nM naltrexone,D (reduction)
same,HIST1H4C L/U-score,10 nM naltrexone,D (reduction)
same,HPCAL1 L/U-score,10 nM naltrexone,U (increase)
same,ITGB2 L/U-score,10 nM naltrexone,U (increase)
same,KCTD6 L/U-score,10 nM naltrexone,D (reduction)
same,LSM5 L/U-score,10 nM naltrexone,D (reduction)
same,MAP4K1 L/U-score,10 nM naltrexone,U (increase)
same,MORF4L1 L/U-score,10 nM naltrexone,D (reduction)
same,MTF1 L/U-score,10 nM naltrexone,D (reduction)
same,MYLK L/U-score,10 nM naltrexone,U (increase)
same,NUCB1 L/U-score,10 nM naltrexone,U (increase)
same,OR10A6 L/U-score,10 nM naltrexone,U (increase)
same,PAH L/U-score,10 nM naltrexone,U (increase)
same,PDCD4 L/U-score,10 nM naltrexone,D (reduction)
same,PECI L/U-score,10 nM naltrexone,D (reduction)
same,PRPF8 L/U-score,10 nM naltrexone,U (increase)
same,PSME2 L/U-score,10 nM naltrexone,D (reduction)
same,PVRL2 L/U-score,10 nM naltrexone,U (increase)
same,RASAL3 L/U-score,10 nM naltrexone,U (increase)
same,S100A6 L/U-score,10 nM naltrexone,U (increase)
same,SH3BGRL3 L/U-score,10 nM naltrexone,U (increase)
same,SPOCK2 L/U-score,10 nM naltrexone,U (increase)
same,WDR75 L/U-score,10 nM naltrexone,D (reduction)
same,YWHAZ L/U-score,10 nM naltrexone,U (increase)
same,"ACTB expression, NTX",10 uM naltrexone (NTX),124
same,"ALDH4A1 expression, NTX",10 uM naltrexone (NTX),95
same,"ASAP1 expression, NTX",10 uM naltrexone (NTX),114
same,"BCLAF1 expression, NTX",10 uM naltrexone (NTX),159
same,"BIRC3 expression, NTX",10 uM naltrexone (NTX),226
same,"CASZ1 expression, NTX",10 uM naltrexone (NTX),107
same,"CDC42SE2 expression, NTX",10 uM naltrexone (NTX),161
same,"CDKN2AIP expression, NTX",10 uM naltrexone (NTX),101
same,"DRAP1 expression, NTX",10 uM naltrexone (NTX),178
same,"DYNLL2 expression, NTX",10 uM naltrexone (NTX),115
same,"EIF2S3 expression, NTX",10 uM naltrexone (NTX),146
same,"EIF3E expression, NTX",10 uM naltrexone (NTX),601
same,"EIF3M expression, NTX",10 uM naltrexone (NTX),131
same,"EIF4B expression, NTX",10 uM naltrexone (NTX),423
same,"EZR expression, NTX",10 uM naltrexone (NTX),841
same,"FRG1 expression, NTX",10 uM naltrexone (NTX),124
same,"H3F3A expression, NTX",10 uM naltrexone (NTX),739
same,"HIST1H4C expression, NTX",10 uM naltrexone (NTX),1370
same,"HPCAL1 expression, NTX",10 uM naltrexone (NTX),275
same,"ITGB2 expression, NTX",10 uM naltrexone (NTX),443
same,"KCTD6 expression, NTX",10 uM naltrexone (NTX),116
same,"LSM5 expression, NTX",10 uM naltrexone (NTX),218
same,"MAP4K1 expression, NTX",10 uM naltrexone (NTX),267
same,"MORF4L1 expression, NTX",10 uM naltrexone (NTX),149
same,"MTF1 expression, NTX",10 uM naltrexone (NTX),95
same,"MYLK expression, NTX",10 uM naltrexone (NTX),124
same,"NUCB1 expression, NTX",10 uM naltrexone (NTX),337
same,"OR10A6 expression, NTX",10 uM naltrexone (NTX),120
same,"PAH expression, NTX",10 uM naltrexone (NTX),95
same,"PDCD4 expression, NTX",10 uM naltrexone (NTX),96
same,"PECI expression, NTX",10 uM naltrexone (NTX),131
same,"PRPF8 expression, NTX",10 uM naltrexone (NTX),353
same,"PSME2 expression, NTX",10 uM naltrexone (NTX),180
same,"PVRL2 expression, NTX",10 uM naltrexone (NTX),113
same,"RASAL3 expression, NTX",10 uM naltrexone (NTX),186
same,"S100A6 expression, NTX",10 uM naltrexone (NTX),112
same,"SH3BGRL3 expression, NTX",10 uM naltrexone (NTX),271
same,"WDR75 expression, NTX",10 uM naltrexone (NTX),95
same,"YWHAZ expression, NTX",10 uM naltrexone (NTX),462
same,ACTB N/U-score,10 uM naltrexone,o (no change)
